Measured values reported in the NIST ThermoML archive (doi:10.1016/j.jct.2010.04.019).

Test: molar heat capacity at constant pressure; xn = mol fraction of the nth substance listed
Settings: 101 kPa, Liquid, Vacuum adiabatic calorimetry

CC#N [acetonitrile] + O
molar heat capacity at constant pressure [J/K/mol]
Settings	283.15 K	298.15 K	313.15 K	328.15 K
x1 = 0.0112	76.78	76.64	76.74	76.89
x1 = 0.0194	77.58	77.54	77.7	77.9
x1 = 0.0286	78.38	78.45	78.67	78.89
x1 = 0.0383	79.1	79.27	79.51	79.77
x1 = 0.0497	79.91	80.02	80.18	80.51
x1 = 0.0611	80.52	80.57	80.8	81
x1 = 0.0702	80.89	80.95	81.21	81.46
x1 = 0.0804	81.26	81.33	81.57	81.9
x1 = 0.091	81.66	81.73	81.99	82.33
x1 = 0.1007	81.99	82.06	82.36	82.7
x1 = 0.2124	85.36	85.66	86.24	86.82
x1 = 0.3063	87.72	88.31	89.08	89.92
x1 = 0.3987	89.89	90.7	91.59	92.56
x1 = 0.4856	91.57	92.38	93.42	94.38
x1 = 0.6011	93.03	93.96	94.89	95.86
x1 = 0.7107	93.7	94.44	95.33	96.16
x1 = 0.8024	93.56	94.16	94.79	95.62
x1 = 0.9005	92.77	93.28	93.87	94.55
x1 = 0.9091	92.66	93.17	93.75	94.42
x1 = 0.9203	92.52	93.01	93.59	94.24
x1 = 0.9316	–	92.85	93.41	94.06
x1 = 0.9402	92.25	92.73	93.29	93.94
x1 = 0.9496	92.11	92.59	93.14	93.77
x1 = 0.9604	91.94	92.4	92.95	93.58
x1 = 0.9711	91.77	92.22	92.76	93.38
x1 = 0.9803	91.61	92.06	92.59	93.21
x1 = 0.991	91.42	91.87	92.39	93
x1 = 1	91.25	91.69	92.21	92.82

O [water] + CC#N
x2 = 0
Settings	molar heat capacity at constant pressure [J/K/mol]
283.15 K	75.52
298.15 K	75.29
313.15 K	75.27
328.15 K	75.34
